Results as given in ChEMBL document CHEMBL1201862, “PubChem BioAssay data set” (2004).
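Interpolation was linear, between the two tested concentrations surrounding the appropriate level; five concentrations were tested over 48 hours in 96-well plates. Abbreviation: GI50, concentration required for 50% inhibition of growth.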 The source made the active and inactive calls. Rule as the data show it: active = GI50 up to about 1.1 µM and inactive = higher.

Assays:
Assay in all cases: NCI anticancer screen, dose series, 48 h
OVCAR-8 = tested on: OVCAR-8
M14 = tested on: M14
HT-29 = tested on: HT-29
CCRF-CEM = tested on: CCRF-CEM
KM-20L2 = tested on: KM-20L2
LXFL 529 = tested on: LXFL 529
786-0 = tested on: 786-0
OVCAR-3 = tested on: OVCAR-3
SR = tested on: SR
COLO 205 = tested on: COLO 205
MDA-N = tested on: MDA-N
HOP-92 = tested on: HOP-92
NCI/ADR-RES = tested on: NCI/ADR-RES
OVCAR-4 = tested on: OVCAR-4
UACC-62 = tested on: UACC-62
T47D = tested on: T47D
Hs-578T = tested on: Hs-578T
PC-3 = tested on: PC-3
MCF7 = tested on: MCF7

| SMILES | GI50 (OVCAR-8) | GI50 (M14) | GI50 (HT-29) | GI50 (CCRF-CEM) | GI50 (KM-20L2) | GI50 (LXFL 529) | GI50 (786-0) | GI50 (OVCAR-3) | GI50 (SR) | GI50 (COLO 205) | GI50 (MDA-N) | GI50 (HOP-92) | GI50 (NCI/ADR-RES) | GI50 (OVCAR-4) | GI50 (UACC-62) | GI50 (T47D) | GI50 (Hs-578T) | GI50 (PC-3) | GI50 (MCF7) |
| --- | --- | --- | --- | --- | --- | --- | --- | --- | --- | --- | --- | --- | --- | --- | --- | --- | --- | --- | --- |
| CN(C)c1ccc(-c2cc(O)c3ccccc3n2)cc1 | > 100 µM (inactive) | > 100 µM (inactive) | > 100 µM (inactive) | > 100 µM (inactive) | > 100 µM (inactive) | > 100 µM (inactive) | > 100 µM (inactive) | > 100 µM (inactive) | > 100 µM (inactive) | > 100 µM (inactive) | – | – | – | – | – | – | – | – | – |
| Cc1c2c(nc3ccccc13)C(=O)c1cccnc1C2=O | 16.8 µM (inactive) | 6.52 µM (inactive) | 9.84 µM (inactive) | 22.4 µM (inactive) | – | – | 33.3 µM (inactive) | 11.7 µM (inactive) | 6.5 µM (inactive) | 17.1 µM (inactive) | 1.77 µM (inactive) | 65.5 µM (inactive) | 27.2 µM (inactive) | 56.2 µM (inactive) | 3.15 µM (inactive) | 26.7 µM (inactive) | 33.5 µM (inactive) | 24.3 µM (inactive) | 4.89 µM (inactive) |
| COC(=O)/C(=C\Nc1cccc(C)n1)S(=O)(=O)c1ccc(C)cc1 | 77.6 µM (inactive) | 45.7 µM (inactive) | 47.4 µM (inactive) | 37.8 µM (inactive) | – | – | > 100 µM (inactive) | 86.3 µM (inactive) | 61.2 µM (inactive) | 22.2 µM (inactive) | 30.1 µM (inactive) | 54.5 µM (inactive) | 76.4 µM (inactive) | 93.5 µM (inactive) | 31.5 µM (inactive) | 48 µM (inactive) | 38.9 µM (inactive) | 38.8 µM (inactive) | 68.2 µM (inactive) |
| COC(=O)NCCc1n[nH]c2c1C(=O)C=C(N1CCOCC1)C2=O | > 100 µM (inactive) | > 100 µM (inactive) | > 100 µM (inactive) | > 100 µM (inactive) | – | – | > 100 µM (inactive) | > 100 µM (inactive) | > 100 µM (inactive) | > 100 µM (inactive) | > 100 µM (inactive) | > 100 µM (inactive) | > 100 µM (inactive) | > 100 µM (inactive) | > 100 µM (inactive) | > 100 µM (inactive) | > 100 µM (inactive) | > 100 µM (inactive) | > 100 µM (inactive) |
| CC1(C)CCCCCCCCCC2CC2CCC(C)(C)C1=O (stereo not drawn) | 30.2 µM (inactive) | 18.8 µM (inactive) | 20.3 µM (inactive) | 21.6 µM (inactive) | – | – | 17.2 µM (inactive) | 12.7 µM (inactive) | 6.59 µM (inactive) | 18.5 µM (inactive) | 30.9 µM (inactive) | 26.3 µM (inactive) | 21 µM (inactive) | 32.9 µM (inactive) | 36.1 µM (inactive) | 18.9 µM (inactive) | 31.3 µM (inactive) | 28.8 µM (inactive) | 16.4 µM (inactive) |
| CC(=O)C(CN(CC(C)C)CC(C)C)C(c1ccccc1)c1c(O)c2ccccc2oc1=O (stereo not drawn) | > 100 µM (inactive) | > 100 µM (inactive) | > 100 µM (inactive) | > 10 µM (inactive) | > 100 µM (inactive) | > 100 µM (inactive) | > 100 µM (inactive) | > 100 µM (inactive) | – | > 100 µM (inactive) | – | > 100 µM (inactive) | – | > 100 µM (inactive) | > 100 µM (inactive) | – | – | – | – |
| CNC(=S)N/N=C1\CC(c2ccccc2)Oc2ccccc21 (stereo not drawn) | > 100 µM (inactive) | > 100 µM (inactive) | > 100 µM (inactive) | > 100 µM (inactive) | – | > 100 µM (inactive) | > 100 µM (inactive) | 34.8 µM (inactive) | > 100 µM (inactive) | > 100 µM (inactive) | – | 18.3 µM (inactive) | – | 18.6 µM (inactive) | > 100 µM (inactive) | – | – | – | – |
| O=C1CCCCC1C(O)(C(F)(F)F)C(F)(F)Cl (stereo not drawn) | > 10 µM (inactive) | > 10 µM (inactive) | > 10 µM (inactive) | > 10 µM (inactive) | – | – | > 10 µM (inactive) | > 10 µM (inactive) | > 10 µM (inactive) | > 10 µM (inactive) | > 10 µM (inactive) | > 10 µM (inactive) | > 10 µM (inactive) | > 10 µM (inactive) | > 10 µM (inactive) | > 10 µM (inactive) | > 10 µM (inactive) | > 10 µM (inactive) | > 10 µM (inactive) |
| COc1cc(S(=O)(=O)Nc2ccc(-c3csc(N4C(=O)C(Cl)C4c4cccs4)n3)cc2)ccc1Cl (stereo not drawn) | 70.6 µM (inactive) | > 100 µM (inactive) | > 100 µM (inactive) | 4.1 µM (inactive) | – | – | 25.8 µM (inactive) | > 100 µM (inactive) | 5.32 µM (inactive) | 31.7 µM (inactive) | 65 µM (inactive) | 19.7 µM (inactive) | > 100 µM (inactive) | 21.6 µM (inactive) | 22.2 µM (inactive) | 54.6 µM (inactive) | > 100 µM (inactive) | > 100 µM (inactive) | 29.5 µM (inactive) |
| Cc1oc2c(C)c(O)c3c(c2c1C1(C)OCCO1)C(=O)C=C(Cl)C3=O | > 100 µM (inactive) | > 100 µM (inactive) | > 100 µM (inactive) | > 100 µM (inactive) | > 100 µM (inactive) | > 100 µM (inactive) | > 100 µM (inactive) | > 100 µM (inactive) | > 100 µM (inactive) | > 100 µM (inactive) | – | > 100 µM (inactive) | – | > 100 µM (inactive) | – | – | – | – | – |
| CC(=O)OC12OC(C)(C3C(=O)N(c4ccccc4)C(=O)C31)N(c1ccccc1)C2=O (stereo not drawn) | > 100 µM (inactive) | > 100 µM (inactive) | > 100 µM (inactive) | > 100 µM (inactive) | – | – | > 100 µM (inactive) | > 100 µM (inactive) | > 100 µM (inactive) | > 100 µM (inactive) | > 100 µM (inactive) | 45.7 µM (inactive) | > 100 µM (inactive) | 51.4 µM (inactive) | > 100 µM (inactive) | > 100 µM (inactive) | > 100 µM (inactive) | 69.3 µM (inactive) | > 100 µM (inactive) |
| COc1c(C(=O)NCCN(CCNC(=O)c2cccc(-c3cccc(C(=O)N(C)C)c3OC)c2OC)CCNC(=O)c2cccc(-c3cccc(C(=O)N(C)C)c3OC)c2OC)cccc1-c1cccc(C(=O)N(C)C)c1OC | > 100 µM (inactive) | > 100 µM (inactive) | 33.1 µM (inactive) | 31.3 µM (inactive) | – | – | 57.3 µM (inactive) | 16.1 µM (inactive) | 26.6 µM (inactive) | 22.1 µM (inactive) | 17.8 µM (inactive) | 14.4 µM (inactive) | > 100 µM (inactive) | 28.3 µM (inactive) | 31.6 µM (inactive) | 15.1 µM (inactive) | 32.4 µM (inactive) | 38.4 µM (inactive) | 18.8 µM (inactive) |
| OCC1OC(c2scc3c(=S)[nH]cnc23)C(O)C1O (stereo not drawn) | 1.24 µM (inactive) | 6.53 µM (inactive) | 5.12 µM (inactive) | 20.8 µM (inactive) | – | – | 8.99 µM (inactive) | 2.19 µM (inactive) | 29.1 µM (inactive) | 11.2 µM (inactive) | 15 µM (inactive) | 0.796 µM (active) | 3.05 µM (inactive) | 4.01 µM (inactive) | 8.65 µM (inactive) | 0.82 µM (active) | 1.77 µM (inactive) | 2.53 µM (inactive) | 2.8 µM (inactive) |
| Cc1cc(N(CCC#N)CCC#N)ccc1/N=N/c1cccc(Cl)c1 | > 100 µM (inactive) | > 100 µM (inactive) | 4.08 µM (inactive) | > 100 µM (inactive) | > 100 µM (inactive) | – | > 100 µM (inactive) | > 100 µM (inactive) | – | > 100 µM (inactive) | – | 20.7 µM (inactive) | – | > 100 µM (inactive) | 70.8 µM (inactive) | – | – | – | – |
| CC(CO)CCNc1ncnc2c1ncn2CCC(=O)OC(C)(C)C (stereo not drawn) | > 100 µM (inactive) | > 100 µM (inactive) | > 100 µM (inactive) | > 100 µM (inactive) | – | – | > 100 µM (inactive) | > 100 µM (inactive) | > 100 µM (inactive) | > 100 µM (inactive) | > 100 µM (inactive) | > 100 µM (inactive) | > 100 µM (inactive) | > 100 µM (inactive) | > 100 µM (inactive) | > 100 µM (inactive) | > 100 µM (inactive) | > 100 µM (inactive) | > 100 µM (inactive) |
| Cc1nc(C)c(N2CCN(CN)CC2)c(O)n1 | > 100 µM (inactive) | > 100 µM (inactive) | > 100 µM (inactive) | > 100 µM (inactive) | – | – | 88.7 µM (inactive) | > 100 µM (inactive) | > 100 µM (inactive) | > 100 µM (inactive) | > 100 µM (inactive) | > 100 µM (inactive) | > 100 µM (inactive) | > 100 µM (inactive) | > 100 µM (inactive) | > 100 µM (inactive) | > 100 µM (inactive) | > 100 µM (inactive) | > 100 µM (inactive) |
| CC(C)(C)[C@H]1CO[C@]2(C)[C@@H]3C[C@@H]3C(=O)N12 | > 100 µM (inactive) | > 100 µM (inactive) | > 100 µM (inactive) | > 100 µM (inactive) | > 100 µM (inactive) | – | > 100 µM (inactive) | > 100 µM (inactive) | > 100 µM (inactive) | > 100 µM (inactive) | – | > 100 µM (inactive) | – | > 100 µM (inactive) | > 100 µM (inactive) | – | – | – | – |
| O=C1Nc2ccc([N+](=O)[O-])cc2/C1=N/NC(=S)Nc1ccccc1 | 5.16 µM (inactive) | 6.01 µM (inactive) | 5.37 µM (inactive) | 2.16 µM (inactive) | – | – | 5.43 µM (inactive) | 10 µM (inactive) | 5.26 µM (inactive) | 11.7 µM (inactive) | 6.35 µM (inactive) | 2.92 µM (inactive) | 2.47 µM (inactive) | 7.23 µM (inactive) | 11 µM (inactive) | 4.71 µM (inactive) | 35.7 µM (inactive) | 5.5 µM (inactive) | 4.41 µM (inactive) |
